Results from patent publication US20070161648A1, “Substituted dihydro-isoindolones useful in treating kinase disorders” (priority 2005, published 2007).
pIC50: −log10 of the molar value.

Tests used:
[1] = target: T1, VEGF-R2 kinase domain (Rattus norvegicus, UniProt O08775); experiment: VEGF-R2 screening assay (33P-ATP FlashPlate kinase assay); format: biochemical; conditions: for inhibition at 100 µM: single test concentration 100 μM; for pIC50: 10 μM ATP
T1 construct: polyhistidine (N)
Experimental: (§1) 70 μL of the kinase reaction mixture was dispensed into the well of a streptavidin coated FlashPlate™ (Cat. # SMP103, NEN, Boston, Mass.).
(§2) Test compound stock in 100% DMSO (1 μL) was added to the wells resulting in a final concentration of 1% DMSO in the reaction with a 100 μL final reaction volume. Each enzyme was diluted in 50 mM Tris-HCl pH=8.0, 0.1% BSA and 30 μL was added to each well to initiate the reaction. The reaction was incubated for one hour at 30° C. At the end of the 1 hr incubation, the reaction was terminated by aspirating the mixture from the plate and washing the wells twice with PBS containing 100 mM EDTA. The biotinylated peptide substrate became immobilized on the Flashplate™ and the incorporation of ^33P-γ-ATP was measured by reading the plate on a scintillation counter. Inhibition of the enzymatic activity was measured by observing a reduced amount of ^33P-γ-ATP incorporated into the immobilized peptide.
The assay used 150 ng of the N-terminal biotinylated peptide biotin-[…]-amide (VEGF-R2) per well.
(§3) A maximum and minimum signal for the assay was determined on each plate. The percent inhibition of a test compound was calculated according to the formula: [formula]

[2] = target: T2, Aurora-A (Mus musculus, UniProt P97477); experiment: Aurora-A screening assay (33P-ATP FlashPlate kinase assay); format: biochemical, murine; conditions: for inhibition at 100 µM: single test concentration 100 μM; for pIC50: 10 μM ATP; for inhibition at 10 µM: single test concentration 10 μM
T2 construct: followed by the full length protein encoding the murine Aurora-A; polyhistidine (N); made in house; host or cells: Sf9 insect cells
T2 sequence (P97477 1-395): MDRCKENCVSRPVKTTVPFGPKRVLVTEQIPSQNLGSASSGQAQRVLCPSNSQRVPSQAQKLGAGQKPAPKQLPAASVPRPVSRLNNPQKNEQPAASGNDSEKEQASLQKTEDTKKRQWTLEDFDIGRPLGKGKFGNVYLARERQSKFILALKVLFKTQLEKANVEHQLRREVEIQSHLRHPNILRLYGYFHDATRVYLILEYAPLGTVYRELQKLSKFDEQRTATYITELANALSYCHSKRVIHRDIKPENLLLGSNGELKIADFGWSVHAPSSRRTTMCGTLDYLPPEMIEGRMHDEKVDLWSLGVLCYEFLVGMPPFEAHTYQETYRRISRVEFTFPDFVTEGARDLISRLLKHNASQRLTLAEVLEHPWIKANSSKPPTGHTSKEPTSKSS
Experimental: as §1, §2
Aurora-A is a fusion protein containing a polyhistidine tag at the N terminus followed by the full length protein encoding the murine Aurora-A (Accession number GB BC014711) expressed and purified from sf9 insect cells. The assay used 400 ng of the N-terminal biotinylated peptide biotin-[…]-amide (Aurora-A) per well.
as §3

[3] = test system: HeLa cervical adenocarcinoma; experiment: Cell proliferation inhibition assay (14C-thymidine incorporation), HeLa; format: cell-based; conditions: Homo sapiens
Text: (§4) The ability of a test compound to inhibit unregulated cell proliferation may be determined by measuring incorporation of ^14C-labelled thymidine into newly synthesized DNA within cell lines derived from carcinomas originating from several tissues. Accordingly, the effect of a test compound on proliferation of cells with a variety of phenotypes may be determined.
(§5) Carcinoma cell lines used include the HeLa cervical adenocarcinoma from the American Type Culture Collection (ATCC Cat. #CCL2), A375 malignant melanoma (ATCC Cat. #CRL-1619) and HCT-116 colon carcinoma (ATCC Cat. #CCL-247).
(§6) The carcinoma cells are trypsinized and counted. The cells (3000-8000 count) are added to each well of a 96-well CytoStar tissue culture treated scintillating microplate (Amersham #RPNQO160) in complete medium (100 μL) and the plate is then incubated in complete medium for 24 hrs at 37° C. in an inert atmosphere containing 5% CO2.
(§7) Test compound (1 μL) in 100% DMSO is added to the plate test-wells with DMSO only added to control-wells. The plate is incubated in complete medium for a second 24 hr period at 37° C. in an atmosphere containing 5% CO2.
(§8) An aliquot of a solution of Methyl ^14C-thymidine (56 mC/mmol) (NEN #NEC568 or Amersham #CFA532) and complete medium (20 uL to provide 0.2 μCi/well) is then added to each well and the plate is incubated for a third 24 hr period at 37° C. in an atmosphere containing 5% CO2.
(§9) The plate contents are then discarded, the plate is washed twice with PBS (200 μL) and then PBS (200 μL) is added to each well. The plate is sealed and the degree of methyl ^14C-thymidine incorporation is quantified on a Packard Top Count.
(§10) For a series of test concentrations, the IC50 was derived by graphing percent inhibition against the log of the concentrations tested for a given compound with results shown in Table 2.

[4] = test system: A375 malignant melanoma; experiment: Cell proliferation inhibition assay (14C-thymidine incorporation), A375; format: cell-based; conditions: Homo sapiens, A-375
Text: as §4, §5, §6, §7, §8, §9, §10

[5] = test system: HCT-116 colon carcinoma; experiment: Cell proliferation inhibition assay (14C-thymidine incorporation), HCT116; format: cell-based; conditions: Homo sapiens
Text: as §4, §5, §6, §7, §8, §9, §10

[6] = read-out: VEGF-R2 percent inhibition
[7] = read-out: Aurora-A percent inhibition

T1 sequence (O08775 786-1343): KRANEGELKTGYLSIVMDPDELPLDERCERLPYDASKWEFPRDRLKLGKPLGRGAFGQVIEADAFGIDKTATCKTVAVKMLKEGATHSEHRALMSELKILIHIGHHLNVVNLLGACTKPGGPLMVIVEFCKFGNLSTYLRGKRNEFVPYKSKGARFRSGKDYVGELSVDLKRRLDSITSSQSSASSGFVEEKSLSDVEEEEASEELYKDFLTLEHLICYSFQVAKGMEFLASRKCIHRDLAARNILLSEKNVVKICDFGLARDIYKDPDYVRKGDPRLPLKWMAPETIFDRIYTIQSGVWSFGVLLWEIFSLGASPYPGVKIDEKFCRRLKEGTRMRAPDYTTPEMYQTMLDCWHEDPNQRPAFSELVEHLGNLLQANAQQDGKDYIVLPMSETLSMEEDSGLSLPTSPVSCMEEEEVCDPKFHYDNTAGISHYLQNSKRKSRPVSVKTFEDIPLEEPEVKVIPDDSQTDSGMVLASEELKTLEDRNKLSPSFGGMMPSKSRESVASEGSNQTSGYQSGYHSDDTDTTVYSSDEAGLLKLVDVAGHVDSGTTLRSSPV

inhibition at 100 µM [1, 6] | inhibition at 100 µM [2, 7] | pIC50 [1] | pIC50 [2] | pIC50 [3] | pIC50 [4] | pIC50 [5] | inhibition at 10 µM [2, 7] | inhibition at 0.1 µM ([1]; single test concentration 0.1 μM, read-out: VEGF-R2 percent inhibition) | inhibition at 0.1 µM ([2]; single test concentration 0.1 μM, read-out: Aurora-A percent inhibition) | Compound
46% | 25% | – | – | – | – | – | – | – | – | CC(C)(C)OC(=O)n1cccc1-c1cccc2c1C(=O)NC2 [Cpd 23, 2-(3-oxo-2,3-dihydro-1H-isoindol-4-yl)-pyrrole-1-carboxylic acid tert-butyl ester]
65% | 57% | – | – | 4.69 | 5.27 | 4.77 | – | – | – | CC(C)(C)OC(=O)n1c(-c2cccc3c2C(=O)NC3)cc2cc(OCCN3CCOCC3)ccc21 [Cpd 30, 5-(2-morpholin-4-yl-ethoxy)-2-(3-oxo-2,3-dihydro-1H-isoindol-4-yl)-indole-1-carboxylic acid tert-butyl ester]
17% | 40% | – | – | 4.35 | 4.40 | 4.40 | – | – | – | COc1cc2c(c(-c3cc4cc(OC)ccc4n3C(=O)OC(C)(C)C)c1)C(=O)NC2 [Cpd 31, 5-Methoxy-2-(6-methoxy-3-oxo-2,3-dihydro-1H-isoindol-4-yl)-indole-1-carboxylic acid tert-butyl ester]
57% | – | – | – | 4.25 | < 5.00 | < 5.00 | 48% | – | – | COc1ccc2c(c1)cc(-c1cccc3c1C(=O)NC3)n2C(=O)OC(C)(C)C [Cpd 27, 5-methoxy-2-(3-oxo-2,3-dihydro-1H-isoindol-4-yl)-indole-1-carboxylic acid tert-butyl ester]
62% | – | – | 5.03 | 4.46 | 4.46 | < 5.00 | – | – | – | CC(C)(C)OC(=O)n1c(-c2cccc3c2C(=O)NC3)cc2cc(O)ccc21 [Cpd 28, 5-hydroxy-2-(3-oxo-2,3-dihydro-1H-isoindol-4-yl)-indole-1-carboxylic acid tert-butyl ester]
– | – | – | – | – | – | – | – | 35% | 30% | COc1ccc2[nH]c(-c3cccc4c3C(=O)NC4=O)cc2c1 [Cpd 22, 4-(5-methoxy-1H-indol-2-yl)-isoindole-1,3-dione]
37% | – | – | < 4.00 | – | – | – | – | – | – | CN1Cc2cccc(-c3ccc[nH]3)c2C1=O [Cpd 25, 2-methyl-7-(1H-pyrrol-2-yl)-2,3-dihydro-isoindol-1-one]
34% | 61% | – | – | – | – | – | – | – | – | CC(C)(C)OC(=O)n1c(-c2cccc3c2C(=O)NC3)cc2ccccc21 [Cpd 26, 2-(3-oxo-2,3-dihydro-1H-isoindol-4-yl)-indole-1-carboxylic acid tert-butyl ester]

Further lines, the molecule ahead of its results:

Compound | inhibition at 100 µM [1, 6] | inhibition at 100 µM [2, 7] | pIC50 [1] | pIC50 [2] | pIC50 [3] | pIC50 [4] | pIC50 [5] | inhibition at 10 µM [2, 7] | inhibition at 0.1 µM ([1]; single test concentration 0.1 μM, read-out: VEGF-R2 percent inhibition) | inhibition at 0.1 µM ([2]; single test concentration 0.1 μM, read-out: Aurora-A percent inhibition)
O=C1NCc2cccc(-c3c[nH]c4ccccc34)c21 [Cpd 20, 7-(1H-Indol-3-yl)-2,3-dihydro-isoindol-1-one] | 50% | 60% | – | – | – | – | – | – | – | –
COc1ccc2[nH]c(-c3cccc4c3C(=O)NC4)cc2c1 [Cpd 3, 7-(5-methoxy-1H-indol-2-yl)-2,3-dihydro-isoindol-1-one] | – | – | 6.95 | 7.15 | < 4.00 | < 4.00 | < 4.00 | – | – | –
COc1ccc2[nH]c(-c3ccc([N+](=O)[O-])c4c3C(=O)NC4)cc2c1 [Cpd 16, 7-(5-methoxy-1H-indol-2-yl)-4-nitro-2,3-dihydro-isoindol-1-one] | – | – | 7.64 | – | 5.03 | 5.28 | 5.51 | 52% | – | –
O=C1NCc2cccc(-c3cc4cc(OCCCN5CCCCC5)ccc4[nH]3)c21 [Cpd 9, 7-[5-(3-piperidin-1-yl-propoxy)-1H-indol-2-yl]-2,3-dihydro-isoindol-1-one] | – | – | 7.19 | 6.75 | 5.22 | 5.39 | 5.11 | – | – | –
O=C1NCc2cccc(-c3cc4cc(O)ccc4[nH]3)c21 [Cpd 4, 7-(5-hydroxy-1H-indol-2-yl)-2,3-dihydro-isoindol-1-one] | – | – | 6.92 | 7.05 | 5.44 | 5.31 | 5.22 | – | – | –
COc1ccc2c(c1)cc(-c1cccc3c1C(=O)NC3=O)n2C(=O)OC(C)(C)C [Cpd 21, 2-(1,3-dioxo-2,3-dihydro-1H-isoindol-4-yl)-5-methoxy-indole-1-carboxylic acid tert-butyl ester] | – | – | 5.82 | 6.57 | 4.37 | < 4.00 | < 4.00 | – | – | –
O=C1NCc2cccc(-c3cc4cc(OCCN5CCOCC5)ccc4[nH]3)c21 [Cpd 8, 7-[5-(2-morpholin-4-yl-ethoxy)-1H-indol-2-yl]-2,3-dihydro-isoindol-1-one] | – | – | 7.13 | 6.87 | 5.24 | 5.57 | 5.24 | – | – | –
COc1ccc2[nH]c(-c3ccc(NC(C)=O)c4c3C(=O)NC4)cc2c1 [Cpd 18, N-[7-(5-methoxy-1H-indol-2-yl)-1-oxo-2,3-dihydro-1H-isoindol-4-yl]-acetamide] | – | 64% | < 4.00 | – | – | – | – | – | – | –
O=C1NCc2cccc(-c3cc4ccccc4[nH]3)c21 [Cpd 7, 7-(1H-indol-2-yl)-2,3-dihydro-isoindol-1-one] | – | – | 6.84 | 7.00 | 5.43 | 5.25 | 5.30 | – | – | –
O=C1NCc2cccc(-c3ccc[nH]3)c21 [Cpd 12, 7-(1H-pyrrol-2-yl)-2,3-dihydro-isoindol-1-one] | – | – | 5.96 | 6.47 | 4.28 | < 5.00 | < 4.00 | – | – | –
COc1ccc2[nH]c(-c3ccc(N)c4c3C(=O)NC4)cc2c1 [Cpd 17, 4-amino-7-(5-methoxy-1H-indol-2-yl)-2,3-dihydro-isoindol-1-one] | – | – | 7.27 | 6.36 | – | – | – | – | – | –
COc1ccc2c(c1)cc(-c1ccc([N+](=O)[O-])c3c1C(=O)NC3)n2C(=O)OC(C)(C)C [Cpd 15, 5-methoxy-2-(7-nitro-3-oxo-2,3-dihydro-1H-isoindol-4-yl)-indole-1-carboxylic acid tert-butyl ester] | – | – | 5.82 | 6.57 | – | – | – | – | – | –
COc1ccc2[nH]c(-c3cccc4c3C(=O)NC4)nc2c1 [Cpd 11, 7-(5-methoxy-1H-benzoimidazol-2-yl)-2,3-dihydro-isoindol-1-one] | – | – | 6.85 | 6.69 | < 5.00 | < 5.00 | < 5.00 | – | – | –
CCN1CCN(CCCOc2ccc3[nH]c(-c4cccc5c4C(=O)NC5)cc3c2)CC1 [Cpd 1, 7-{5-[3-(4-ethyl-piperazin-1-yl)-propoxy]-1H-indol-2-yl}-2,3-dihydro-isoindol-1-one] | – | – | 7.85 | 7.36 | 5.27 | 5.41 | 5.41 | – | – | –
O=C1NCc2cccc(-c3cc4cc(OCc5ccccc5)ccc4[nH]3)c21 [Cpd 19, 7-(5-benzyloxy-1H-indol-2-yl)-2,3-dihydro-isoindol-1-one] | – | – | 4.95 | 4.67 | – | – | – | – | – | –
